Results taken from PubChem BioAssay (NCI).
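GI50 = concentration required for 50% inhibition of growth. The concentration for full growth arrest is given as TGI.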

Tests used:
Assay in all cases: NCI tumour cell line growth inhibition, 384-well format
786-0 renal = tested on: 786-0 renal
A498 renal = tested on: A498 renal
A549 NSCLC = tested on: A549 NSCLC
ACHN renal = tested on: ACHN renal
BT-549 breast = tested on: BT-549 breast
CAKI-1 renal = tested on: CAKI-1 renal
CCRF-CEM leukemia = tested on: CCRF-CEM leukemia
EKVX NSCLC = tested on: EKVX NSCLC
HCT-116 colon = tested on: HCT-116 colon
HCT-15 colon = tested on: HCT-15 colon
HL-60(TB) leukemia = tested on: HL-60(TB) leukemia
HOP-62 NSCLC = tested on: HOP-62 NSCLC
HOP-92 NSCLC = tested on: HOP-92 NSCLC
HS 578T breast = tested on: HS 578T breast
HT29 colon = tested on: HT29 colon
IGROV1 ovarian = tested on: IGROV1 ovarian
K-562 leukemia = tested on: K-562 leukemia
KM12 colon = tested on: KM12 colon
LOX IMVI melanoma = tested on: LOX IMVI melanoma
M14 melanoma = tested on: M14 melanoma
MALME-3M melanoma = tested on: MALME-3M melanoma
MCF7 breast = tested on: MCF7 breast
MDA-MB-231 breast = tested on: MDA-MB-231 breast
MDA-MB-435 melanoma = tested on: MDA-MB-435 melanoma
MDA-MB-468 breast = tested on: MDA-MB-468 breast
MOLT-4 leukemia = tested on: MOLT-4 leukemia
NCI-H226 lung = tested on: NCI-H226 lung
NCI-H23 lung = tested on: NCI-H23 lung
NCI-H322M lung = tested on: NCI-H322M lung
NCI-H522 lung = tested on: NCI-H522 lung
NCI/ADR-RES ovarian = tested on: NCI/ADR-RES ovarian
OVCAR-3 ovarian = tested on: OVCAR-3 ovarian
OVCAR-5 ovarian = tested on: OVCAR-5 ovarian
OVCAR-8 ovarian = tested on: OVCAR-8 ovarian
PC-3 prostate = tested on: PC-3 prostate
RPMI-8226 leukemia = tested on: RPMI-8226 leukemia
RXF 393 renal = tested on: RXF 393 renal
SF-268 CNS = tested on: SF-268 CNS
SF-295 CNS = tested on: SF-295 CNS
SF-539 CNS = tested on: SF-539 CNS
SK-MEL-28 melanoma = tested on: SK-MEL-28 melanoma
SK-OV-3 ovarian = tested on: SK-OV-3 ovarian
SN12C renal = tested on: SN12C renal
SNB-19 CNS = tested on: SNB-19 CNS
SNB-75 CNS = tested on: SNB-75 CNS
SW-620 colon = tested on: SW-620 colon
T-47D breast = tested on: T-47D breast
TK-10 renal = tested on: TK-10 renal
U251 glioblastoma = tested on: U251 glioblastoma
UACC-257 melanoma = tested on: UACC-257 melanoma
UACC-62 melanoma = tested on: UACC-62 melanoma
UO-31 renal = tested on: UO-31 renal

S=c1nc[nH]c2nc[nH]c12
GI50 ([…]-0 renal): 0.468 µM
TGI (786-0 renal): 2.2 µM
GI50 (A498 renal): 10.6 µM
TGI (A498 renal): 96.7 µM
GI50 (A549 NSCLC): 5.6 µM
TGI (A549 NSCLC): 57.1 µM
GI50 (ACHN renal): 1.83 µM
TGI (ACHN renal): 6.91 µM
GI50 (BT-549 breast): 0.482 µM
TGI (BT-549 breast): 2.3 µM
GI50 (CAKI-1 renal): 1.57 µM
TGI (CAKI-1 renal): 5.45 µM
GI50 (CCRF-CEM leukemia): 1.42 µM
TGI (CCRF-CEM leukemia): 3 µM
GI50 (EKVX NSCLC): 53.9 µM
GI50 (HCT-116 colon): 1.8 µM
GI50 (HCT-15 colon): 4.73 µM
GI50 (HL-60(TB) leukemia): 0.357 µM
TGI (HL-60(TB) leukemia): 1.84 µM
GI50 (HOP-62 NSCLC): 0.219 µM
TGI (HOP-62 NSCLC): 0.592 µM
GI50 (HOP-92 NSCLC): 0.301 µM
GI50 (HS 578T breast): 0.473 µM
TGI (HS 578T breast): 3.38 µM
GI50 (HT29 colon): 1.89 µM
GI50 (IGROV1 ovarian): 3.63 µM
GI50 (K-562 leukemia): 0.334 µM
TGI (K-562 leukemia): 0.95 µM
GI50 (KM12 colon): 1.33 µM
GI50 (LOX IMVI melanoma): 0.206 µM
TGI (LOX IMVI melanoma): 0.481 µM
GI50 (M14 melanoma): 0.306 µM
GI50 (MALME-3M melanoma): 0.494 µM
TGI (MALME-3M melanoma): 3.14 µM
GI50 (MCF7 breast): 0.272 µM
TGI (MCF7 breast): 10.2 µM
GI50 (MDA-MB-231 breast): 0.395 µM
TGI (MDA-MB-231 breast): 1.86 µM
GI50 (MDA-MB-435 melanoma): 0.729 µM
GI50 (MDA-MB-468 breast): 0.15 µM
TGI (MDA-MB-468 breast): 0.416 µM
GI50 (MOLT-4 leukemia): 0.151 µM
TGI (MOLT-4 leukemia): 0.318 µM
GI50 (NCI-H226 lung): 0.294 µM
TGI (NCI-H226 lung): 11.9 µM
GI50 (NCI-H23 lung): 0.576 µM
TGI (NCI-H23 lung): 5.86 µM
GI50 (NCI-H322M lung): 1.06 µM
TGI (NCI-H322M lung): 7.28 µM
GI50 (NCI-H522 lung): 0.299 µM
TGI (NCI-H522 lung): 1.77 µM
GI50 (NCI/ADR-RES ovarian): 2.06 µM
TGI (NCI/ADR-RES ovarian): 8.77 µM
GI50 (OVCAR-3 ovarian): 0.168 µM
TGI (OVCAR-3 ovarian): 0.389 µM
GI50 (OVCAR-5 ovarian): 1.25 µM
TGI (OVCAR-5 ovarian): 2.8 µM
GI50 (OVCAR-8 ovarian): 1.48 µM
TGI (OVCAR-8 ovarian): 5.93 µM
GI50 (PC-3 prostate): 2.4 µM
GI50 (RPMI-8226 leukemia): 0.289 µM
TGI (RPMI-8226 leukemia): 1.28 µM
GI50 (RXF 393 renal): 0.241 µM
TGI (RXF 393 renal): 1.16 µM
GI50 (SF-268 CNS): 1.11 µM
TGI (SF-268 CNS): 2.8 µM
GI50 (SF-295 CNS): 1.13 µM
TGI (SF-295 CNS): 3.71 µM
GI50 (SF-539 CNS): 0.481 µM
TGI (SF-539 CNS): 2.91 µM
GI50 (SK-MEL-28 melanoma): 15.4 µM
TGI (SK-MEL-28 melanoma): 99.6 µM
GI50 (SK-OV-3 ovarian): 0.569 µM
GI50 (SN12C renal): 2.43 µM
TGI (SN12C renal): 19.4 µM
GI50 (SNB-19 CNS): 11.3 µM
TGI (SNB-19 CNS): 37 µM
GI50 (SNB-75 CNS): 0.217 µM
TGI (SNB-75 CNS): 5.13 µM
GI50 (SW-620 colon): 4.15 µM
GI50 (T-47D breast): 0.423 µM
GI50 (TK-10 renal): 0.437 µM
TGI (TK-10 renal): 2.19 µM
GI50 (U251 glioblastoma): 3.3 µM
GI50 (UACC-257 melanoma): 2.04 µM
GI50 (UACC-62 melanoma): 0.876 µM
GI50 (UO-31 renal): 1.86 µM
TGI (UO-31 renal): 5.23 µM
